Measured values as given in publication PMC10844371 (Diabetologia, 2023).
Values joined by “and” are separate entries in the source; they are usually repeats but may differ in a detail not shown here. Equal entries are not always repeated. Where two headings read alike, the source gives them in different places.

Columns and labels:
mouse alpha cells = assay: TIRF imaging of docked secretory granules in mouse alpha cells; format: cell-based
Procedure: (§1) Cells were imaged using total internal reflection fluorescence (TIRF) microscopy (AxioObserver Z1 with a ×100/1.45 objective [Carl Zeiss] and a diode-pumped solid state laser at 491 nm). For these measurements, EC1 was used (ESM Table 2). Images from cells infected with preproglucagon promoter (PPPG)-neuropeptide Y (NPY)-enhanced green fluorescent protein (EGFP) virus were recorded using an electron-multiplying charge-coupled device camera (Photometrics Evolve) using ZEN blue. Single images of cells were acquired to measure the number of docked granules. Incoming and outgoing granules during visiting, docking and undocking were determined from multiple frame movies as described previously. Candidate docking or undocking events were found manually as granules that approached the TIRF field with an axial component and became laterally confined for at least two frames. We defined docking as granules that remained confined for at least 1 min. Visitors were those granules that remained for <1 min after appearing at the plasma membrane. Undocking was defined as slow movement of a previously docked granule away from its docking site. Granule density was calculated using a script that used the built-in ‘find maxima’ function in ImageJ (version 1.53c; http://rsbweb.nih.gov/ij) for spot detection.

human alpha cells = assay: TIRF imaging of docked secretory granules in human alpha cells; format: cell-based; conditions: 10 pmol/l
Procedure: as §1

[1] = mouse, in vivo, ip
Procedure: C57Bl6N mice were fasted for 5 h prior to the ITTs. GLP-1(9–36) (100 µg/kg body weight) was injected intraperitoneally before or with insulin as indicated. The relative high dose of GLP-1(9–36) was used because of high basal levels of the peptide. In the control experiments, mice were injected with the saline solvent (154 mmol/l NaCl). […] Total GLP-1 was measured by ELISA (81508; Crystal Chem, Zaandam, the Netherlands; CV<10%).

[2] = system: isolated mouse pancreatic islets; format: cell-based; conditions: for glucagon secretion, % of that at 1 mmol/l glucose: mean ± SEM
Procedure: Experiments were conducted as previously described. Islets were incubated in 0.3 ml EC1 or EC2 media (ESM Table 2) supplemented with glucose and other reagents as indicated.
(§2) All data are reported, unless otherwise stated, as mean values ± SEM for the indicated number of experiments using islets from multiple mice. For hormone release studies, islets were isolated and pooled from 4–16 mice. These islets were then subdivided into groups of 12–20 size-matched islets. Each unique set of islets counted as an experiment with the experiments repeated on 2–4 days. Similarly, each unique group of human islets was treated as an experiment. […] In the Ca^2+ imaging and granule docking experiment, each cell represents an experiment making sure that cells from multiple donors/animals were used. For the in vivo experiments and the perfused pancreas, each mouse count represents an experiment. For two groupings, a t test was conducted. For multiple comparisons, one-way ANOVA was conducted. All statistical tests were performed using Graphpad Prism (version 9.1.0; graphpad.com).

[3] = system: PKA activity in alpha cells; assay: PKA activity measurements (AKAR3) in alpha cells in intact islets; format: cell-based, mouse
Procedure: PKA activity was measured using AKAR3 as previously described. The cells were continuously superfused at a rate of 60 μl/min with EC4 (ESM Table 2).

C57Bl6N mice = assay: Plasma glucose and glucagon during insulin-induced hypoglycaemia; format: in vivo, mouse
Procedure: In the experiments involving the use of REMD2.59, mice were injected intraperitoneally with the antagonist (5 mg/kg body weight in PBS) or vehicle 24 h prior to insulin-induced hypoglycaemia. Following the completion of the experiment, the mice were euthanised and the pancreases were resected and weighed.

human pancreatic islets = assay: Glucagon secretion in human islets (ELISA); format: cell-based
Procedure: Human pancreatic islets were isolated (with ethical approval and clinical consent) as previously described. Islets from the pancreases of 18 healthy donors and five donors with type 2 diabetes were used (see electronic supplementary material [ESM] Table 1; ESM Human islets checklist).
Mouse islets were used acutely, except for studies with PTX, wherein islets were treated overnight with the toxin. Human islets were maintained in culture for up to 48 h in RPMI medium containing 10% (vol./vol.) FCS, 1% (vol./vol.) penicillin/streptomycin and 5 mmol/l glucose. Experiments were conducted as previously described. Islets were incubated in 0.3 ml EC1 or EC2 media (ESM Table 2) supplemented with glucose and other reagents as indicated. Glucagon was determined by ELISA (Mercodia).
as §2, with “graphpad.com). It was ascertained that the data were normally distributed.” for “graphpad.com).”

[4] = system: isolated mouse pancreatic islets; assay: Insulin secretion in isolated mouse islets (RIA); format: cell-based
Procedure: Mouse islets were used acutely, except for studies with PTX, wherein islets were treated overnight with the toxin. Human islets were maintained in culture for up to 48 h in RPMI medium containing 10% (vol./vol.) FCS, 1% (vol./vol.) penicillin/streptomycin and 5 mmol/l glucose. Experiments were conducted as previously described. Islets were incubated in 0.3 ml EC1 or EC2 media (ESM Table 2) supplemented with glucose and other reagents as indicated.
Insulin and somatostatin were determined by RIA (Millipore and Diasource ImmunoAssays, respectively) as described previously. In these experiments, rates of release are expressed as % of contents unless otherwise indicated.

Compound: CC[C@H](C)[C@H](NC(=O)[C@H](Cc1ccccc1)NC(=O)[C@H](CCC(=O)O)NC(=O)[C@H](CCCCN)NC(=O)[C@H](C)NC(=O)[C@H](C)NC(=O)[C@H](CCC(N)=O)NC(=O)CNC(=O)[C@H](CCC(=O)O)NC(=O)[C@H](CC(C)C)NC(=O)[C@H](Cc1ccc(O)cc1)NC(=O)[C@H](CO)NC(=O)[C@H](CO)NC(=O)[C@@H](NC(=O)[C@H](CC(=O)O)NC(=O)[C@H](CO)NC(=O)[C@@H](NC(=O)[C@H](Cc1ccccc1)NC(=O)[C@@H](NC(=O)CNC(=O)[C@@H](N)CCC(=O)O)[C@@H](C)O)[C@@H](C)O)C(C)C)C(=O)N[C@@H](C)C(=O)N[C@@H](Cc1c[nH]c2ccccc12)C(=O)N[C@@H](CC(C)C)C(=O)N[C@H](C(=O)N[C@@H](CCCCN)C(=O)NCC(=O)N[C@@H](CCCNC(=N)N)C(N)=O)C(C)C [GLP-1(9–36)]
- time at which reduction of docked granules was maximal (mouse alpha cells; 10 pmol/l): 10 min
- reduction of the number of docked granules (mouse alpha cells; 10 pmol/l, 1 mmol/l glucose, mouse alpha cells): 40%
- how granule density was reduced (docking, undocking, arrival) (mouse alpha cells; 10 pmol/l, during 15 min): inhibiting granule docking and stimulating granule undocking, while not affecting the rate of arrival
- capacity to reduce docked granules in the presence of L-168049 (mouse alpha cells; L-168049 100 nmol/l): prevented
- capacity to reduce docked granules after PTX pretreatment (mouse alpha cells; PTX 100 ng/ml for 16 h): prevented
- capacity to reduce docked granules in the presence of exendin(9–39) (mouse alpha cells; exendin(9–39) 100 nmol/l, 15 min after addition): resistant
- effect on granule docking in the presence of ω-agatoxin (mouse alpha cells; ω-agatoxin 200 nmol/l): no additive effect
- increase of docking (human alpha cells; alpha cells from donors with type 2 diabetes): 40%
- reduction of the number of docked granules (human alpha cells; alpha cells from healthy donors, after 15 min): 52%
- time for which plasma GLP-1 remained at >100 pmol/l [1]: > 45 min
- glucagon secretion, % of that at 1 mmol/l glucose ([2]; 10 pmol/l GLP-1(9–36) in the presence of REMD2.59 100 nmol/l): 110±4%
- inhibitory effect on glucagon secretion in Glp1r−/− mouse islets ([2]; 10 pmol/l, Glp1r−/− islets, 1 mmol/l glucose): persisted
- glucagonostatic effect in the presence of exendin(9–39) ([2]; 10 pmol/l, exendin(9–39) 1 μmol/l, 1 mmol/l glucose): retained their glucagonostatic effect
- inhibition of glucagon secretion ([2]; 30 pmol/l, 1 mmol/l glucose): 55%
- change of glucagon secretion compared with 10 mmol/l glucose alone ([2]; 30 pmol/l, 10 mmol/l glucose): −50%
- glucagon secretion, % of that at 1 mmol/l glucose ([2]; 1000 pmol/l GLP-1(9–36) in the presence of REMD2.59 100 nmol/l): 76±5%
- glucagonostatic effect in the presence of the PKA inhibitor 8-Br-Rp-cAMPS ([2]; 8-Br-Rp-cAMPS 10 μmol/l, 1 mmol/l glucose): retains its glucagonostatic capacity
- IC50 ([2]; 48 h): 4 pM
- inhibition of amino acid-induced glucagon secretion ([2]; AA 6 mmol/l (2 mmol/l each glutamine, alanine, arginine), 1 mmol/l glucose): −66%
- reduction of isoprenaline-stimulated glucagon secretion ([2]; in the presence of isoprenaline): 75%
- inhibition of glucagon secretion ([2]; islets cultured overnight without PTX, 1 mmol/l glucose): ~ 50%
- reduction of glucagon secretion evoked by 70 mmol/l [K+]o ([2]; membrane depolarisation, 70 mmol/l extracellular K+): 60%
- inhibitory effect on glucagon secretion after PTX pretreatment ([2]; overnight PTX 100 ng/ml, 1 mmol/l glucose): almost abolished
- expected inhibition of glucagon secretion by circulating levels ([2]; ~30 pmol/l, from the dose–inhibition curves established in vitro): up to 80%
- effect on PKA activity in the presence of L-168049 ([3]; 10 and 100 pmol/l, L-168049 100 nmol/l): without effect
- inhibitory effect on PKA activity after PTX pretreatment ([3]; PTX pretreatment): abolished
- concentrations at which the decrease in cAMP/PKA activity was maximal ([3]; alpha cells in intact mouse islets): > 10 pmol/L
- decrease of plasma glucagon AUC during hypoglycaemia (C57Bl6N mice; 100 µg/kg i.p. at t=−15 min, AUC over 45 min after insulin, 13 or 14 mice): 30% and ~ 30%
- effect on hypoglycaemia-triggered increase in plasma glucagon (C57Bl6N mice; 100 µg/kg i.p. at t=−15 min, insulin 0.75 U/kg): slightly reduced
- glucagonostatic effect when administered simultaneously with insulin (C57Bl6N mice; co-injected with insulin 0.75 U/kg, p=0.53): No glucagonostatic effect
- glucagonostatic effect in the presence of REMD2.59 (C57Bl6N mice; mice pretreated with REMD2.59, GLP-1(9–36) 100 µg/kg): no glucagonostatic effect
- effect on basal plasma glucagon (C57Bl6N mice; normoglycaemic conditions, prior to insulin injection, 100 µg/kg i.p.): not affected
- inhibition of glucagon secretion (human pancreatic islets; human islets, 10 pmol/l, 1 mmol/l glucose): ~ 50%
- glucagonostatic effect (human pancreatic islets; human islets, 6 mmol/l glucose): exerted a glucagonostatic effect
- glucagonostatic effect (human pancreatic islets; human islets, 20 mmol/l glucose): not at 20 mmol/l glucose
- suppression of glucagon release in islets from donors with type 2 diabetes (human pancreatic islets; islets from donors with type 2 diabetes): loss
- effect on insulin secretion ([4]; 30 pmol/l alone, at 1 or 10 mmol/l glucose): did not increase insulin secretion
- effect on insulin secretion ([4]; 10–10,000 pmol/l, mouse islets, 1 mmol/l glucose): No stimulatory effects
